pIC50: −log10 of the molar value.
Experiments:
Format in all cases: biochemical
ITK = target: T1, ITK (Homo sapiens, UniProt Q08881); assay: ITK IC50 kinase inhibition assay
T1 sequence (Q08881 1-620): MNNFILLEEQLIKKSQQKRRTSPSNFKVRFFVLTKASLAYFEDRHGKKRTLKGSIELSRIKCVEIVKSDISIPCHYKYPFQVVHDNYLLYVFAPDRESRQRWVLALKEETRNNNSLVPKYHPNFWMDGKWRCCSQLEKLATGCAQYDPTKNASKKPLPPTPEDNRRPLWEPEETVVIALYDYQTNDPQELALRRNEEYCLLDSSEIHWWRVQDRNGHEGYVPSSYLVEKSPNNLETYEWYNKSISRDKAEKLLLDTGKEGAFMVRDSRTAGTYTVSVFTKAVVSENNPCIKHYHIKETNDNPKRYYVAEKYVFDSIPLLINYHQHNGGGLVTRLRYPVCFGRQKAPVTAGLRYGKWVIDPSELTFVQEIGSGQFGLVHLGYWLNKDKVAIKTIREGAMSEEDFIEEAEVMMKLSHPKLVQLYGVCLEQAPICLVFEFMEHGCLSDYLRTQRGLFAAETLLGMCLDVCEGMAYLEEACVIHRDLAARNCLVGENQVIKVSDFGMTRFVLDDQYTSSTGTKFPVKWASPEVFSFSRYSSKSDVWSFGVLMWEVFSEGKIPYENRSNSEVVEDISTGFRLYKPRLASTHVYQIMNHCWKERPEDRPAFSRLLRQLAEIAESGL

BTK = BTK (Homo sapiens, UniProt Q06187); assay: BTK IC50 kinase inhibition assay
Sequence of BTK (Q06187 whole entry): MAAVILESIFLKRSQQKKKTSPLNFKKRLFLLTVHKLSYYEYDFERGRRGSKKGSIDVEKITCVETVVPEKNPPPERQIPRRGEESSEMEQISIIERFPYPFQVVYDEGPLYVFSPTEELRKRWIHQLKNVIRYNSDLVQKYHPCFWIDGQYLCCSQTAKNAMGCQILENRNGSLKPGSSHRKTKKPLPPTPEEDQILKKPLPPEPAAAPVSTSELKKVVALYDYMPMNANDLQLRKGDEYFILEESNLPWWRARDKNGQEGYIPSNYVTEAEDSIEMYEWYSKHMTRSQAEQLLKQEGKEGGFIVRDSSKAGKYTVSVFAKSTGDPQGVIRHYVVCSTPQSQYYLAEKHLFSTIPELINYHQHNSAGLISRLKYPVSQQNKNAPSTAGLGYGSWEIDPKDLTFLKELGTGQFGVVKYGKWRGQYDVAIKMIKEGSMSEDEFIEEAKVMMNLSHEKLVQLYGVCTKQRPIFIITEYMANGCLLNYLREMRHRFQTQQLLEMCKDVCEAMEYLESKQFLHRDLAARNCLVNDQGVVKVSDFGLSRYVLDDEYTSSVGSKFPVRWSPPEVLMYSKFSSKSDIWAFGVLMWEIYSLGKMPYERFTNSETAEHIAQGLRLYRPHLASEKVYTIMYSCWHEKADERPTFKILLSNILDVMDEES

JAK3 = target: T2, JAK3 (Homo sapiens, UniProt P52333); assay: JAK3 IC50 kinase inhibition assay
T2 sequence (P52333 1-1124): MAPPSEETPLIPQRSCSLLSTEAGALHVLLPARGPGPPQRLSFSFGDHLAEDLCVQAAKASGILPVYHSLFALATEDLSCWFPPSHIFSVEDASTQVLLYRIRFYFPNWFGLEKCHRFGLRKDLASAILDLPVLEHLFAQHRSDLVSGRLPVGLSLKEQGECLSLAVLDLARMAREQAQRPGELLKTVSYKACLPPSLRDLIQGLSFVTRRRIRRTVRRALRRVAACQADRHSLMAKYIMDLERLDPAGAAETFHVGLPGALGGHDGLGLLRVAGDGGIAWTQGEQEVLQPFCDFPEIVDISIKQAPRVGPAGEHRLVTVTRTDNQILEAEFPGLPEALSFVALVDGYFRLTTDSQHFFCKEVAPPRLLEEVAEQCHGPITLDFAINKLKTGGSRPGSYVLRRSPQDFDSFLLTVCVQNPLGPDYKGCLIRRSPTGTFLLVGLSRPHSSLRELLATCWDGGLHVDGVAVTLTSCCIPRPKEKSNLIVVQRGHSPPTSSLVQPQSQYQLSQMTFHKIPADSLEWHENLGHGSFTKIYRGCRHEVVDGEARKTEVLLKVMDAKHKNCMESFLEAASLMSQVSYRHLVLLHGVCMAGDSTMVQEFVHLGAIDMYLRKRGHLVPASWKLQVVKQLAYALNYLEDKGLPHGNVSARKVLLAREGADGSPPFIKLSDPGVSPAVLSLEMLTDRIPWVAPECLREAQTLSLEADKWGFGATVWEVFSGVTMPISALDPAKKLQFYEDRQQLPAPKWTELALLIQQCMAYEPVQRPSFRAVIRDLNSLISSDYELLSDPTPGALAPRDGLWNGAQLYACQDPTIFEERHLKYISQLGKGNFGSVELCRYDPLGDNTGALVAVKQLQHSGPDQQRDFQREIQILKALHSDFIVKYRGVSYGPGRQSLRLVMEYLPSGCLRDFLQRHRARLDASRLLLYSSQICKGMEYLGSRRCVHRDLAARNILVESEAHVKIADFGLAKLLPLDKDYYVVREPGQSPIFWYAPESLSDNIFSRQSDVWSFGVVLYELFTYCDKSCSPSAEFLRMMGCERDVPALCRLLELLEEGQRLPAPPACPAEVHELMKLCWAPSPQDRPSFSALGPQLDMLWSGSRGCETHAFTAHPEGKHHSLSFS

TXK = target: T3, TXK (Homo sapiens, UniProt P42681); assay: TXK IC50 kinase inhibition assay
T3 sequence (P42681 1-527): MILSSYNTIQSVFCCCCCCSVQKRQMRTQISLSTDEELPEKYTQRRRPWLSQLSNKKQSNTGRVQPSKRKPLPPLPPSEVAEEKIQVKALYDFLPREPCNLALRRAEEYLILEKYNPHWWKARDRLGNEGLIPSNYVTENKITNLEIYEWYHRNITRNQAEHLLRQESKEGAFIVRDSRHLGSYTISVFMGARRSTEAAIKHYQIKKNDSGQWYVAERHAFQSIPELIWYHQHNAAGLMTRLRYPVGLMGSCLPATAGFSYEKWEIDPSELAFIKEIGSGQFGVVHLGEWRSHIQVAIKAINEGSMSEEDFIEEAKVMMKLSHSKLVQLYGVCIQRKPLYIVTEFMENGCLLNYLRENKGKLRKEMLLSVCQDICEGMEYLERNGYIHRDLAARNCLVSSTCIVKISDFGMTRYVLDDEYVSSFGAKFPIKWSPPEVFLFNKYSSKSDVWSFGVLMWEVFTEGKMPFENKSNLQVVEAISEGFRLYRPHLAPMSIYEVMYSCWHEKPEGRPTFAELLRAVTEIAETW

Compound | pIC50 (ITK) | pIC50 (BTK) | pIC50 (JAK3) | pIC50 (TXK)
C=C(F)C(=O)N1CCC[C@@H](n2nc(-c3ccc(Oc4ccccc4)cc3)c3cncnc32)C1 [Compound A62, (R)-2-fluoro-1-(3-(3-(4-phenoxyphenyl)-1H-pyrazolo[3,4-d]pyrimidin-1-yl)piperidin-1-yl)prop-2-en-1-one] | < 6.30 | 6.30 to 7.00 | < 6.30 | 6.30 to 7.00
C=CC(=O)N1CCC[C@@H](n2nc(-c3ccc(Oc4ccccc4)cc3)c3cncc(C#N)c32)C1 [Compound A72, (R)-1-(1-acryloylpiperidin-3-yl)-3-(4-phenoxyphenyl)-1H-pyrazolo[4,3-c]pyridine-7-carbonitrile] | < 6.30 | > 7.00 | < 6.30 | > 7.00
CC#CC(=O)Nc1ccccc1Cn1nc(-c2ccc(Oc3ccccc3)cc2)c2cncnc21 [Compound A61, N-(2-((3-(4-phenoxyphenyl)-1H-pyrazolo[3,4-d]pyrimidin-1-yl)methyl)phenyl)but-2-ynamide] | < 6.30 | < 6.30 | < 6.30 | > 7.00
C=CC(=O)N1CCC(n2nc(-c3ccc(Oc4ccccc4)cc3)c3cncnc32)CC1 [Compound A36, 1-(4-(3-(4-phenoxyphenyl)-1H-pyrazolo[3,4-d]pyrimidin-1-yl)piperidin-1-yl)prop-2-en-1-one] | < 6.30 | 6.30 to 7.00 | < 6.30 | 6.30 to 7.00
C=CC(=O)N[C@@H](C)Cn1nc(-c2ccc(Oc3ccccc3)cc2)c2cncnc21 [Compound A43, (S)—N-(1-(3-(4-phenoxyphenyl)-1H-pyrazolo[3,4-d]pyrimidin-1-yl)propan-2-yl)acrylamide] | < 6.30 | > 7.00 | < 6.30 | 6.30 to 7.00
C=CC(=O)N1CCC[C@H]1Cn1nc(-c2ccc(Oc3ccccc3)cc2)c2cnccc21 [Compound A22, (S)-1-(2-((3-(4-phenoxyphenyl)-1H-pyrazolo[4,3-c]pyridin-1-yl)methyl)pyrrolidin-1-yl)prop-2-en-1-one] | < 6.30 | > 7.00 | < 6.30 | > 7.00
C=CC(=O)N1CC2(CC(n3nc(-c4ccc(Oc5ccccc5)cc4)c4cncnc43)C2)C1 [Compound A37, 1-(6-(3-(4-phenoxyphenyl)-1H-pyrazolo[3,4-d]pyrimidin-1-yl)-2-azaspiro[3.3]heptan-2-yl)prop-2-en-1-one] | < 6.30 | > 7.00 | < 6.30 | 6.30 to 7.00
CC#CC(=O)N1CC[C@@H](c2nc(-c3ccc(Oc4ccccc4)cc3)c3cnccn23)C1 [Compound A32, (R)-1-(3-(1-(4-phenoxyphenyl)imidazo[1,5-a]pyrazin-3-yl)pyrrolidin-1-yl)but-2-yn-1-one] | < 6.30 | > 7.00 | < 6.30 | 6.30 to 7.00
CC#CC(=O)N1CC2(CC(n3nc(-c4ccc(Oc5ccccc5)cc4)c4cncnc43)C2)C1 [Compound A60, 1-(6-(3-(4-phenoxyphenyl)-1H-pyrazolo[3,4-d]pyrimidin-1-yl)-2-azaspiro[3.3]heptan-2-yl)but-2-yn-1-one] | < 6.30 | > 7.00 | < 6.30 | > 7.00
C=CC(=O)N1CCC[C@@H](n2nc(-c3ccc(Oc4ccccc4)cc3F)c3cncnc32)C1 [Compound A2, (R)-1-(3-(3-(2-fluoro-4-phenoxyphenyl)-1H-pyrazolo[3,4-d]pyrimidin-1-yl)piperidin-1-yl)prop-2-en-1-one] | < 6.30 | > 7.00 | 6.30 to 7.00 | > 7.00
CC#CC(=O)N1CC[C@@H](n2nc(-c3ccc(Oc4ccccc4)cc3)c3cncnc32)C1 [Compound A18, (R)-1-(3-(3-(4-phenoxyphenyl)-1H-pyrazolo[3,4-d]pyrimidin-1-yl)pyrrolidin-1-yl)but-2-yn-1-one] | < 6.30 | 6.30 to 7.00 | < 6.30 | < 6.30
O=C(C#CCN1CCCCC1)N1CC2(CC(n3nc(-c4ccc(Oc5ccccc5)cc4)c4cncnc43)C2)C1 [Compound A77, 1-(6-(3-(4-Phenoxyphenyl)-1H-pyrazolo[3,4-d]pyrimidin-1-yl)-2-azaspiro[3.3]heptan-2-yl)-4-(piperidin-1-yl)but-2-yn-1-one] | < 6.30 | > 7.00 | < 6.30 | > 7.00
CC#CC(=O)N1CC[C@@H](Cn2nc(-c3ccc(Oc4ccccc4)cc3)c3cncnc32)C1 [Compound A63, (R)-1-(3-((3-(4-phenoxyphenyl)-1H-pyrazolo[3,4-d]pyrimidin-1-yl)methyl)pyrrolidin-1-yl)but-2-yn-1-one] | < 6.30 | 6.30 to 7.00 | < 6.30 | < 6.30
C=CC(=O)N1CCC[C@H]1Cn1nc(-c2ccc(Oc3cccc(CC)c3)cc2)c2cncnc21 [Compound A46, (S)-1-(2-((3-(4-(3-ethylphenoxy)phenyl)-1H-pyrazolo[3,4-d]pyrimidin-1-yl)methyl)pyrrolidin-1-yl)prop-2-en-1-one] | < 6.30 | > 7.00 | < 6.30 | > 7.00
C=CC(=O)N1CCC[C@H]1c1nc(-c2ccc(Oc3ccccc3)cc2)c2cnccn12 [Compound A29, (S)-1-(2-(1-(4-phenoxyphenyl)imidazo[1,5-a]pyrazin-3-yl)pyrrolidin-1-yl)prop-2-en-1-one] | < 6.30 | > 7.00 | < 6.30 | 6.30 to 7.00
CC#CC(=O)N1CC[C@H](Cn2nc(-c3ccc(Oc4ccccc4)cc3)c3cncnc32)C1 [Compound A64, (S)-1-(3-((3-(4-phenoxyphenyl)-1H-pyrazolo[3,4-d]pyrimidin-1-yl)methyl)pyrrolidin-1-yl)but-2-yn-1-one] | < 6.30 | > 7.00 | < 6.30 | 6.30 to 7.00
C=CC(=O)N1CC[C@H]1Cn1nc(-c2ccc(Oc3ccccc3)cc2)c2cncnc21 [Compound A51, (S)-1-(2-((3-(4-phenoxyphenyl)-1H-pyrazolo[3,4-d]pyrimidin-1-yl)methyl)azetidin-1-yl)prop-2-en-1-one] | < 6.30 | > 7.00 | < 6.30 | > 7.00
C=CC(=O)N1CCC(Cn2nc(-c3ccc(Oc4ccccc4)cc3)c3cncnc32)CC1 [Compound A34, 1-(4-((3-(4-phenoxyphenyl)-1H-pyrazolo[3,4-d]pyrimidin-1-yl)methyl)piperidin-1-yl)prop-2-en-1-one] | < 6.30 | > 7.00 | < 6.30 | < 6.30

Reference: patent publication US10870652B2, “Compounds and methods for modulating bruton's tyrosine kinase” (CORVUS PHARMACEUTICALS, INC., priority 2016, dated 2020)
